These compounds were tested against T1, Glycogen phosphorylase, muscle form (Oryctolagus cuniculus, UniProt P00489) (assay: Binding affinity to rabbit muscular GPa by NMR binding assay).
T1 sequence (P00489 whole entry): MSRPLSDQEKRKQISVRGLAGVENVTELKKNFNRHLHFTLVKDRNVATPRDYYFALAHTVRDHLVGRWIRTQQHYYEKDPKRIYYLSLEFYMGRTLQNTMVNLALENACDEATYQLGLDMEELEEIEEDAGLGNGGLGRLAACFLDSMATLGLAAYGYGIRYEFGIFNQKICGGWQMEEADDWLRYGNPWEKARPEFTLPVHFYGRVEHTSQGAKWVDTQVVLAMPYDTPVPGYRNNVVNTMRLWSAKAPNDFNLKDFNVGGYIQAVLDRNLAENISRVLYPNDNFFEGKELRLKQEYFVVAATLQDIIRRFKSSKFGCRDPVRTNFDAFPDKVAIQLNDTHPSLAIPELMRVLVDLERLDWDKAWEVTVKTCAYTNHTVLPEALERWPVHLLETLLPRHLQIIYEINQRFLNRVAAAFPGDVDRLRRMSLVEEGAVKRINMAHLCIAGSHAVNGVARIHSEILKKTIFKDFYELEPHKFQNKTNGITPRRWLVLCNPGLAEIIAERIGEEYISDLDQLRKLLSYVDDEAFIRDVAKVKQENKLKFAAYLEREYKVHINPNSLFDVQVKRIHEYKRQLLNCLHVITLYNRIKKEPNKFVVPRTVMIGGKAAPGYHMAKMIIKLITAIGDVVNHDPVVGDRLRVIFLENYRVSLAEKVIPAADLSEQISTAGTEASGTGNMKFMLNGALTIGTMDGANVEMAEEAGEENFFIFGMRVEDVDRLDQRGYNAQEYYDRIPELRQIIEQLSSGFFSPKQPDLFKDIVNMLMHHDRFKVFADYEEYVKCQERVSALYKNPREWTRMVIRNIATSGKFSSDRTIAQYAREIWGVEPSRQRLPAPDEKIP

Row | IC50 [µM] | Structure (SMILES)
1 | 96.9 | O=C(CN1CCN(c2ccccc2)CC1)Nc1nccs1
2 | 9.9 | Cc1cc(F)c(Sc2nccn2C)cc1C(=O)Nc1cccc(C#N)c1
3 | 2.7 | Cc1cc(F)c(Sc2nccn2C)cc1C(=O)Nc1cccc(N)c1

Each compound was assayed against T1, Glycogen phosphorylase, muscle form.
Description: Binding affinity to rabbit muscular GPb by NMR binding assay

Row | IC50 [µM] | Structure (SMILES)
4 | 4 | O=C(NC(=O)c1cc2ccccc2[nH]1)N[C@@H]1O[C@H](CO)[C@@H](O)[C@H](O)[C@H]1O
5 | 59.8 | O=C1NCC(O)NC12O[C@H](CO)[C@@H](O)[C@H](O)[C@H]2O (stereo not given in full)
6 | 6.6 | Cc1cn([C@@H]2O[C@H](CO)[C@@H](O)[C@H](O)[C@H]2O)c(=O)[nH]c1=O
7 | 0.9 | Nc1ccccc1C(=O)Nc1ccccc1Oc1ccc(C(=O)O)c(C(=O)O)c1
8 | 0.024 | O=C(O)c1ccccc1-n1cc(C(=O)O)c(=O)c2cc(Cc3c(F)cc(F)cc3Cl)c(Cl)cc21

These compounds were tested against T2, Glycogen phosphorylase, liver form (Homo sapiens, UniProt P06737) (assay: Binding affinity to human liver GPa by NMR binding assay).
T2 sequence (P06737 whole entry): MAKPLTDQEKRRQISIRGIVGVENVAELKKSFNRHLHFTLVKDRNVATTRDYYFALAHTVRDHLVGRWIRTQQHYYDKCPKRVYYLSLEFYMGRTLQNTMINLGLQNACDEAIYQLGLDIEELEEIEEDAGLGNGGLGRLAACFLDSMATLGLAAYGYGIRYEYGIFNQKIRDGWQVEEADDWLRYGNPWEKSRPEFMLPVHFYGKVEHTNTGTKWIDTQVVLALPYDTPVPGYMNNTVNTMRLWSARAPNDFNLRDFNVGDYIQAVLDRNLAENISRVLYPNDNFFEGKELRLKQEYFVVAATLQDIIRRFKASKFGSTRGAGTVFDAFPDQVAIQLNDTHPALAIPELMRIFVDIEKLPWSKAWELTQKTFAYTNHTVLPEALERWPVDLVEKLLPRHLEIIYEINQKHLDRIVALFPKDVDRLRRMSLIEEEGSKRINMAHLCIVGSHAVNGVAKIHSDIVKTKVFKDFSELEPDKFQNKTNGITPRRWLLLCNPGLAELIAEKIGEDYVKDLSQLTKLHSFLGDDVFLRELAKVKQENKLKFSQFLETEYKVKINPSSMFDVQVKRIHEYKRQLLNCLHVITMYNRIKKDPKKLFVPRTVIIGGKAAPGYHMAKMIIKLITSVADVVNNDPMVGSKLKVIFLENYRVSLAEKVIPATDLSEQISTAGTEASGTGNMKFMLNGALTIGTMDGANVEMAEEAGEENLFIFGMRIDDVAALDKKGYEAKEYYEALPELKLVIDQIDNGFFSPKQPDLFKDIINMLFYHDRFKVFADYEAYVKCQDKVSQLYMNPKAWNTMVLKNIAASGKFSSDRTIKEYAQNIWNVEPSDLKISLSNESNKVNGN

Row | IC50 [µM] | Structure (SMILES)
9 | 12.5 | COCCNC(=O)c1c[nH]c2ccc(Cl)cc12
10 | 1.3 | Nc1ccccc1C(=O)Nc1ccccc1Oc1ccc(C(=O)O)c(C(=O)O)c1

From ChEMBL document CHEMBL2029245, “Binding evaluation of fragment-based scaffolds for probing allosteric enzymes” (J Med Chem, 2012)
